{"source": "patent US7232837B2", "about": "“Stereoisomers with high affinity for adrenergic receptors” (McNeil-PPC, Inc., priority 1999, dated 2007)", "key": {"Swiss-Webster mice [1]": {"test_system": "Swiss-Webster mice", "experiment": "Locomotor stimulant and depressant effects in mice", "conditions": "i.p.", "experimental": "Male Swiss-Webster mice (HSD ND4, Harlan Sprague Dawley, Houston, Tex.) aged 2–3 months were used in these studies. Each dose group consisted of 8 mice. The mice were housed 2 to 4 per cage in 30.4×22.9×15.2 cm clear polycarbonate cages with food and water available ad libitum for at least one week prior to locomotor activity testing. The colony was maintained at 23±1° C., on a normal light-dark cycle beginning at 0700 hr. All testing took place during the light portion of the light-dark cycle.\nHorizontal (forward movement) locomotor activity was measured using a standardized, optical activity monitoring system [Model KXYZCM (16), Omnitech Electronics, Columbus, Ohio]. Activity was monitored in forty 40.5×40.5×30.5 cm clear acrylic chambers that where housed in sets of two within larger sound-attenuating chambers. A panel of 16 infrared beams and corresponding photodetectors were spaced 2 cm apart along the sides and 2.4 cm above the floor of each activity chamber. A 7.5-W incandescent light above each chamber provided dim illumination via a rheostat set to 20% of full scale. Fans provided an 80-dB ambient noise level within the chamber.\nTriprolidine HCl was obtained from Research Biochemicals International, (Natick, Mass.).\nLocomotor stimulant effects. […] (+)-Amphetamine was used as a positive control. The total horizontal distance traversed (cm) was recorded at 10 minute intervals for a 2-hour session. Separate groups of 8 mice were assigned to each dose or saline group, and dose-effect testing continued for each compound until maximal stimulant or depressant effects could be estimated. A separate control group was tested along with each compound.\nUsing TableCurve 2D v2.03 (Jandel Scientific), the mean average total distance traversed (cm/10 min) for that period was fit to a 3-parameter logistic peak function of log10 dose (with the constant set to the mean of the saline group), and the maximum effect estimated from the resulting curve. The […] (dose producing ½ maximal stimulant activity) was estimated from a linear regression against log10 dose of the ascending portion of the dose-effect curve. The stimulant efficacy was the peak effect of the compound (cm/10 min) as estimated from the logistic peak function, minus the mean control distance traveled (cm/10 min), and was expressed for each stimulant compound as a ratio to the stimulant efficacy determined for (+)-amphetamine.\nThe mean average total distance traversed (cm/10 min) for that period were fit to a linear function of log10 dose of the descending portion of the dose-effect curve. […] Efficacy was the ratio of maximal depressant effect to maximum possible depression for each compound (mean average total distance of the control group minus the lowest mean total distance, expressed as a ratio to the control group total distance).\n(§1) Statistical analysis. Time course data for each compound were considered in 2-way analyses of variance with dose as a between-group and time as a within-group factor. The dose-effect data were considered in 1-way analyses of variance, and planned individual comparisons were conduced between each dose and the saline control group. Interaction studies were considered in 2-way analyses of variance, with Pretreatment and Test dose as the factors."}, "Dog": {"test_system": "Dog", "experiment": "Dosage which raised mean arterial pressure 10%, dog", "type": "in vivo"}, "Rat": {"test_system": "Rat", "experiment": "Dosage which raised mean arterial pressure 10%, rat", "type": "in vivo"}, "[2]": {"test_system": "New Zealand white rabbits", "experiment": "Intraocular pressure (IOP) after topical application to the rabbit eye", "type": "in vivo", "conditions": "mean ± S.E.", "experimental": "These diastereomers were administered topically as either 1% or 2% solutions in buffered saline. Pupillary diameter and IOP were measured in all animals over a six hour time period during the day to minimize diurnal variations in IOP and pupil diameter.\nThe experiments were performed on adult male New Zealand white rabbits weighing 3.0–6.0 kg. All rabbits were caged individually and maintained on a 12 hr/12 hr light/dark schedule with free access to food and water. All animal procedures were in conformity with the ARVO Resolution on the Use and Care of Animals in Research. All treated rabbits had served as controls by having received a saline treatment on a different day.\nOnly one eye received drug treatment. The contralateral eye served as a control. Saline (or PBS) and drug treated rabbits were treated and observed simultaneously. A single dose was given at time zero and IOP and pupil diameter measured at −1.0, −0.5, 0.5, 1, 3 and 5 hrs post-treatment.\nIOP measurements were recorded with an Alcon Applanation Pneumotonograph (Surgical Products Division, Alcon Laboratories, Inc., Ft. Worth, Tex.) in rabbits placed in Lucite restraining cages. Initial topical application of a two drop 0.5% proparacaine HCl (Ophthetic®, Allergan Pharmaceuticals, Inc.) was performed on each rabbit.\nMean and Standard Error values were used to construct time-response and dose-response curves for the treated and contralateral eye of research rabbits. The data were analyzed statistically by an analysis of variance and a Bonferoni's test for significance. P<0.05 was the accepted level of significance."}, "Swiss-Webster mice [3]": {"test_system": "Swiss-Webster mice", "experiment": "H1 receptor antagonist (triprolidine) interaction study, locomotor activity in mice", "conditions": "mice pretreated with triprolidine 20 min before the test compound", "experimental": "H1 receptor antagonist interaction studies. […] The mice were immediately placed in the activity testing chamber for a 2-h session. Doses of the test compound were selected from the ascending or descending time of the dose-effect curve determined from the compound-alone studies. Eight mice were tested for each triprolidine/test compound combination.\nas §1"}}}
{"smiles": "CNC[C@H](O)c1cccc(O)c1", "note": "[(−)-Phenylephrine, (−)-phenylephrine]", "values": [{"measurement": "Depression Time: 30-min period following injection in which the maximal depression occurred", "setting": "Swiss-Webster mice [1]", "result": "0 to 30", "unit": "min"}, {"measurement": "Stimulation Time: 30-min period following injection in which the maximal stimulant effect occurred", "setting": "Swiss-Webster mice [1]", "result": "60 to 90", "unit": "min"}, {"measurement": "locomotor depressant effects, time course (result in words)", "setting": "Swiss-Webster mice [1]", "result": "dose-dependent locomotor depression within 10 to 20 minutes following injection"}, {"measurement": "Depression Potency: dose resulting in ½ the maximal depressant effect (ID50)", "setting": "Swiss-Webster mice [1]; — denotes absence of significant effect", "result": 2.3, "unit": "mg/kg"}, {"measurement": "Dosage of Enantiomer which raised mean arterial pressure 10%, Dog", "setting": "Dog", "result": 10, "unit": "µg/kg"}, {"measurement": "Dosage of Enantiomer which raised mean arterial pressure 10%, Rat", "setting": "Rat", "result": "3 to 5", "unit": "µg"}, {"measurement": "IOP", "setting": "[2]; 1% topical, drug treated eye (T), 0.5 hr", "result": "24 ± 0.6", "unit": "mmHg"}, {"measurement": "IOP", "setting": "[2]; 1% topical, drug treated eye (T), 1 hr", "result": "24 ± 1.0", "unit": "mmHg"}, {"measurement": "IOP", "setting": "[2]; 1% topical, drug treated eye (T), 3 hr", "result": "23 ± 1.5", "unit": "mmHg"}, {"measurement": "IOP", "setting": "[2]; 1% topical, drug treated eye (T), 5 hr", "result": "21 ± 1.9", "unit": "mmHg"}, {"measurement": "IOP", "setting": "[2]; 1% topical, drug treated eye (T), −0.5 hr (pre-treatment)", "result": "16 ± 1.5", "unit": "mmHg"}, {"measurement": "IOP", "setting": "[2]; 1% topical, drug treated eye (T), −1 hr (pre-treatment)", "result": "20 ± 1.6", "unit": "mmHg"}, {"measurement": "IOP", "setting": "[2]; 1% topical, untreated contralateral eye (U), 0.5 hr", "result": "18 ± 1.6", "unit": "mmHg"}, {"measurement": "IOP", "setting": "[2]; 1% topical, untreated contralateral eye (U), 1 hr", "result": "19 ± 1.3", "unit": "mmHg"}, {"measurement": "IOP", "setting": "[2]; 1% topical, untreated contralateral eye (U), 3 hr", "result": "20 ± 1.9", "unit": "mmHg"}, {"measurement": "IOP", "setting": "[2]; 1% topical, untreated contralateral eye (U), 5 hr", "result": "19 ± 1.7", "unit": "mmHg"}, {"measurement": "IOP", "setting": "[2]; 1% topical, untreated contralateral eye (U), −0.5 hr (pre-treatment)", "result": "15 ± 2.1", "unit": "mmHg"}, {"measurement": "IOP", "setting": "[2]; 1% topical, untreated contralateral eye (U), −1 hr (pre-treatment)", "result": "16 ± 1.0", "unit": "mmHg"}, {"measurement": "IOP", "setting": "[2]; 2% topical, drug treated eye (T), 0.5 hr", "result": "12 ± 0.8", "unit": "mmHg"}, {"measurement": "IOP", "setting": "[2]; 2% topical, drug treated eye (T), 1 hr", "result": "14 ± 2.0", "unit": "mmHg"}, {"measurement": "IOP", "setting": "[2]; 2% topical, drug treated eye (T), 3 hr", "result": "16 ± 0.8", "unit": "mmHg"}, {"measurement": "IOP", "setting": "[2]; 2% topical, drug treated eye (T), 5 hr", "result": "14 ± 1.3", "unit": "mmHg"}, {"measurement": "IOP", "setting": "[2]; 2% topical, drug treated eye (T), −0.5 hr (pre-treatment)", "result": "15 ± 1.5", "unit": "mmHg"}, {"measurement": "IOP", "setting": "[2]; 2% topical, drug treated eye (T), −1 hr (pre-treatment)", "result": "18 ± 1.6", "unit": "mmHg"}, {"measurement": "IOP", "setting": "[2]; 2% topical, untreated contralateral eye (U), 0.5 hr", "result": "20 ± 2.0", "unit": "mmHg"}, {"measurement": "IOP", "setting": "[2]; 2% topical, untreated contralateral eye (U), 1 hr", "result": "20 ± 2.4", "unit": "mmHg"}, {"measurement": "IOP", "setting": "[2]; 2% topical, untreated contralateral eye (U), 3 hr", "result": "14 ± 1.7", "unit": "mmHg"}, {"measurement": "IOP", "setting": "[2]; 2% topical, untreated contralateral eye (U), 5 hr", "result": "14 ± 2.0", "unit": "mmHg"}, {"measurement": "IOP", "setting": "[2]; 2% topical, untreated contralateral eye (U), −0.5 hr (pre-treatment)", "result": "17 ± 1.9", "unit": "mmHg"}, {"measurement": "IOP", "setting": "[2]; 2% topical, untreated contralateral eye (U), −1 hr (pre-treatment)", "result": "17 ± 1.9", "unit": "mmHg"}, {"measurement": "effect of triprolidine pretreatment on stimulant or depressant effects", "setting": "Swiss-Webster mice [3]", "result": "failed to show significant modification of stimulant or depressant effects"}]}
